Assay results reported in ChEMBL document CHEMBL3804808, “Discovery of a Novel 2,6-Disubstituted Glucosamine Series of Potent and Selective Hexokinase 2 Inhibitors” (ACS Med Chem Lett, 2016).

Tests used:
Hexokinase-1 = target: T1, Hexokinase-1 (Homo sapiens, UniProt P19367); assay: Inhibition of His-tagged human HK1 (11 to 917 residues) expressed in Escherichia coli BL21(DE3) using glucose as substrate after 45 mins by ADP-glo assay in presence of MgATP
T1 sequence (P19367 whole entry): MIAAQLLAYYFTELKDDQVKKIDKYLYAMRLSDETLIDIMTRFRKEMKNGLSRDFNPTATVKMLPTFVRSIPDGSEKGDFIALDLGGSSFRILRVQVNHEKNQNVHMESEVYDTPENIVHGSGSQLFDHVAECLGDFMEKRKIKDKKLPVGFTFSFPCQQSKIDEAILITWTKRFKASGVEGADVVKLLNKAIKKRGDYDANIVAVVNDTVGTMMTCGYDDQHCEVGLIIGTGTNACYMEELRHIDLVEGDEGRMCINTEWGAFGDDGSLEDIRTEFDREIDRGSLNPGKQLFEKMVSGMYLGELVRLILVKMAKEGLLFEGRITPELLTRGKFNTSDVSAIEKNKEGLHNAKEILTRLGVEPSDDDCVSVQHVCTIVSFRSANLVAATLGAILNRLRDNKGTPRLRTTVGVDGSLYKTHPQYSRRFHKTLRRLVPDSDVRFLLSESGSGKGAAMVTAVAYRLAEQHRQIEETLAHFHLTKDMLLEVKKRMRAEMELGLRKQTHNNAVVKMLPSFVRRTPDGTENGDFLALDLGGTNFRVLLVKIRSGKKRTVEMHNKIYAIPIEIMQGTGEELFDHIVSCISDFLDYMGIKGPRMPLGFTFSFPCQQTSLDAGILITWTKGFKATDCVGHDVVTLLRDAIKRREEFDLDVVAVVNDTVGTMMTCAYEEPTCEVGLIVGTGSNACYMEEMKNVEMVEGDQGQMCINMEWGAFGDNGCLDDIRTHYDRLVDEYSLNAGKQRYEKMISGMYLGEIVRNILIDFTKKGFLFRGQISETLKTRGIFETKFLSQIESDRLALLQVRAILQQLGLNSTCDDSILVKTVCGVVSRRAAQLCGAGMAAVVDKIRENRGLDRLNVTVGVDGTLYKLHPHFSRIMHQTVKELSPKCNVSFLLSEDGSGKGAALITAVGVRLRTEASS

Hexokinase-2 [1] = target: T2, Hexokinase-2 (Homo sapiens, UniProt P52789); assay: Inhibition of His-tagged human HK2 (17 to 916 residues) expressed in Escherichia coli BL21(DE3) using glucose as substrate after 45 mins by ADP-glo assay in presence of MgATP
T2 sequence (P52789 whole entry): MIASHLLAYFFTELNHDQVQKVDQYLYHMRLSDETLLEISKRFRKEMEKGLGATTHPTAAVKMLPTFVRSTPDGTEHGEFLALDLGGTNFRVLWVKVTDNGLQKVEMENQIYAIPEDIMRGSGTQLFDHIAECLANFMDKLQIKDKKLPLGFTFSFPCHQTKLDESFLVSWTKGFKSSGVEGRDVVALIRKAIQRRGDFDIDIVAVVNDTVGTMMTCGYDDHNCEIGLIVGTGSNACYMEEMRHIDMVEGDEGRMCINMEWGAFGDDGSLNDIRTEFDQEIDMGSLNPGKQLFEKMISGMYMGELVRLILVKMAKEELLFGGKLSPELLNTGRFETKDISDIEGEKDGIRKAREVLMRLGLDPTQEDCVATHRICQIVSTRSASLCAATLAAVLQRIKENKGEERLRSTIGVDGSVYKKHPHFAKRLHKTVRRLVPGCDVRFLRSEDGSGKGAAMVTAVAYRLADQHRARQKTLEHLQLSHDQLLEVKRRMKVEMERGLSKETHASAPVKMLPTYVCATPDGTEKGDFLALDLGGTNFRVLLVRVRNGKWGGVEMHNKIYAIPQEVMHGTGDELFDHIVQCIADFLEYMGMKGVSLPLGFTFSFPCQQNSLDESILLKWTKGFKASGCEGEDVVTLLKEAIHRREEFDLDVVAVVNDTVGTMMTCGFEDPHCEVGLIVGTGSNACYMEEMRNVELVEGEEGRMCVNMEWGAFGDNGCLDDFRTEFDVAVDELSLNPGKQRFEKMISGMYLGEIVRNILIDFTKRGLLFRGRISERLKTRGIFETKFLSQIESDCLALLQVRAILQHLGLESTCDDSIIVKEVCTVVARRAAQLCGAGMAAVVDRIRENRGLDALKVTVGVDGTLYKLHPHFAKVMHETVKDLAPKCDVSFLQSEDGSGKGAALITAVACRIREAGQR

Hexokinase-2 [2] = target: T2, Hexokinase-2; assay: Inhibition of HK2 in human UM-UC-3 cells using 2FDG as substrate assessed as suppression of G6P production preincubated for 30 mins followed by substrate treatment for 90 mins by resazurin assay; format: cell-based, UMUC3
Hexokinase-2 [3] = target: T2, Hexokinase-2; assay: Competitive inhibition of His-tagged human HK2 (17 to 916 residues) expressed in Escherichia coli BL21(DE3) assessed as formation of G6P by continuous G6P dehydrogenase coupled assay in presence of glucose
Hexokinase-4 = target: T3, Hexokinase-4 (Homo sapiens, UniProt P35557); assay: Inhibition of HK4 (unknown origin)
T3 sequence (P35557 whole entry): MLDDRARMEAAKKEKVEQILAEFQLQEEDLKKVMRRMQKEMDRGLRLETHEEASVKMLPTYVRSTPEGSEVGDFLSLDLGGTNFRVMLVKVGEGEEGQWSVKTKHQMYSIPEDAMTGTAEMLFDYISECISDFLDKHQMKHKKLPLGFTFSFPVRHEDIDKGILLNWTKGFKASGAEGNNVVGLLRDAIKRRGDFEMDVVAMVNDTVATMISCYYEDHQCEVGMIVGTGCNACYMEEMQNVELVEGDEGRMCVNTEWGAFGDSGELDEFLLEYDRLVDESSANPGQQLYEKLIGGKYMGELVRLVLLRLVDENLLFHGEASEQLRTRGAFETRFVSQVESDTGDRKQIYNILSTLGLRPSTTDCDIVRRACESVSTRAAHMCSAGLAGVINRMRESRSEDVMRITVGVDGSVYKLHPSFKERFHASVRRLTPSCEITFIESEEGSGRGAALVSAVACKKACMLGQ

Row | Compound | IC50 (Hexokinase-1) | IC50 (Hexokinase-2 [1]) | IC50 (Hexokinase-2 [2]) | Ki (Hexokinase-2 [3]) | IC50 (Hexokinase-4)
1 | COc1cc(C(=O)N[C@H]2C(O)O[C@H](CNS(=O)(=O)c3cccc(Cl)c3Cl)[C@@H](O)[C@@H]2O)cc(-c2ccc(C#N)cc2)c1 (stereo not given in full) | 7.9 nM | 25 nM |  |  | 
2 | O=[N+]([O-])c1cccc(S(=O)(=O)N[C@H]2C(O)O[C@H](CNS(=O)(=O)c3cccc(Cl)c3Cl)[C@@H](O)[C@@H]2O)c1 (stereo not given in full) | 10000 nM | 130 nM |  |  | 
3 | O=C(C=C1CCC(C(F)(F)F)CC1)N[C@H]1C(O)O[C@H](CO)[C@@H](O)[C@@H]1O (stereo not given in full) | 160000 nM | 16000 nM |  |  | 
4 | N#Cc1ccc(-c2cc(C(=O)N[C@H]3C(O)O[C@H](CO)[C@@H](O)[C@@H]3O)cc(C(F)(F)F)c2)cc1 (stereo not given in full) | 40 nM | 790 nM |  |  | 
5 | O=C(N[C@H]1C(O)O[C@H](CNS(=O)(=O)c2ccccc2Cl)[C@@H](O)[C@@H]1O)c1cccc(-c2ccccc2)c1 (stereo not given in full) | 16 nM | 100 nM |  |  | 
6 | Cc1oc(S(=O)(=O)NC[C@H]2OC(O)[C@H](NC(=O)c3cccc(Br)c3)[C@@H](O)[C@@H]2O)cc1C(=O)O (stereo not given in full) | 20 nM | 10 nM |  |  | 
7 | O=C(N[C@H]1C(O)O[C@H](CNS(=O)(=O)c2cnccc2Cl)[C@@H](O)[C@@H]1O)c1cccc(-c2ccccc2)c1 (stereo not given in full) | 20 nM | 100 nM |  |  | 
8 | O=S(=O)(N[C@H]1C(O)O[C@H](CNS(=O)(=O)c2cccc(Cl)c2Cl)[C@@H](O)[C@@H]1O)c1ccc(Cl)s1 (stereo not given in full) | 63000 nM | 130 nM | 520 nM |  | 
9 | O=C(N[C@H]1C(O)O[C@H](CO)[C@@H](O)[C@@H]1O)c1cccc(-c2ccccc2)c1 (stereo not given in full) | 790 nM | 3200 nM |  |  | 
10 | O=C(N[C@H]1C(O)O[C@H](CNS(=O)(=O)c2cccc(Cl)c2)[C@@H](O)[C@@H]1O)c1cccc(-c2ccccc2)c1 (stereo not given in full) | 160 nM | 320 nM |  |  | 
11 | O=S(=O)(N[C@H]1C(O)O[C@H](CNS(=O)(=O)c2cccc(Cl)c2Cl)[C@@H](O)[C@@H]1O)c1cccc(-c2ccccc2)c1 (stereo not given in full) | 5000 nM | 25 nM | 470 nM |  | 
12 | O=C(/C=C/c1ccc(Cl)c(Cl)c1)N[C@H]1C(O)O[C@H](CO)[C@@H](O)[C@@H]1O (stereo not given in full) | 2000 nM | 6300 nM |  | 2900 nM | 
13 | O=C(O)c1cccc(S(=O)(=O)NC[C@H]2OC(O)[C@H](NC(=O)c3cccc(-c4ccccc4)c3)[C@@H](O)[C@@H]2O)c1 (stereo not given in full) | 25 nM | 50 nM |  |  | 
14 | O=C(/C=C/c1ccc(Cl)c(Cl)c1)N[C@H]1CO[C@H](CO)[C@@H](O)[C@@H]1O | > 200000 nM | > 400000 nM |  |  | 
15 | O=C(N[C@H]1C(O)O[C@H](CNS(=O)(=O)c2ccccc2)[C@@H](O)[C@@H]1O)c1cccc(-c2ccccc2)c1 (stereo not given in full) | 160 nM | 790 nM |  |  | 
16 | O=C(N[C@H]1C(O)O[C@H](CO)[C@@H](O)[C@@H]1O)c1cc([N+](=O)[O-])cc([N+](=O)[O-])c1 (stereo not given in full) | 2000 nM | 2000 nM |  |  | 
17 | COC1O[C@H](CO)[C@@H](O)[C@H](O)[C@H]1NC(=O)/C=C/c1ccc(Cl)c(Cl)c1 (stereo not given in full) | > 200000 nM | > 400000 nM |  |  | 
18 | O=C(N[C@H]1C(O)O[C@H](CNS(=O)(=O)c2cccc(Cl)c2Cl)[C@@H](O)[C@@H]1O)c1cccc(-c2ccccc2)c1 (stereo not given in full) | 32 nM | 25 nM | 200 nM |  | 3.5 µM
19 | COC(=O)c1cc(S(=O)(=O)NC[C@H]2OC(O)[C@H](NC(=O)c3cccc(Br)c3)[C@@H](O)[C@@H]2O)oc1C (stereo not given in full) | 1600 nM | 630 nM |  |  | 
20 | N#Cc1ccc(S(=O)(=O)NC[C@H]2OC(O)[C@H](NC(=O)c3cccc(-c4ccccc4)c3)[C@@H](O)[C@@H]2O)cc1 (stereo not given in full) | 7.9 nM | 130 nM |  |  | 
21 | O=S(=O)(N[C@H]1C(O)O[C@H](CNS(=O)(=O)c2cccc(Cl)c2Cl)[C@@H](O)[C@@H]1O)c1ccc(Cl)c(Cl)c1 (stereo not given in full) | > 20000 nM | 50 nM |  |  | 
22 | O=S(=O)(N[C@H]1C(O)O[C@H](CNS(=O)(=O)c2cccc(Cl)c2Cl)[C@@H](O)[C@@H]1O)c1cccc(-c2ccc(Cl)cc2)c1 (stereo not given in full) | 1000 nM | 7.9 nM |  |  | 
23 | O=C(N[C@H]1C(O)O[C@H](CNS(=O)(=O)c2cccc(Cl)c2Cl)[C@@H](O)[C@@H]1O)c1ccc(Cl)s1 (stereo not given in full) | 2000 nM | 40 nM |  |  | 
24 | O=C(N[C@H]1C(O)O[C@H](CO)[C@@H](O)[C@@H]1O)c1ccc(-c2ccccc2)cc1 (stereo not given in full) | 13000 nM | 16000 nM |  |  | 
25 | Cc1ccc(S(=O)(=O)NC[C@H]2OC(O)[C@H](NC(=O)/C=C/c3ccc(Cl)c(Cl)c3)[C@@H](O)[C@@H]2O)cc1 (stereo not given in full) | 2000 nM | 2000 nM |  |  | 
